Measurements from PubChem BioAssay AID210 (DTP/NCI, 2004).
“And” between values parts separate entries of the source, which are not always exact repeats. Equal values may be shown once. Toxic doses and inconclusive results are not listed. *1 amine or outer side, *2 acyl side, *3 side chain or, on linkers, in order; H or OH if unused. Where a SMILES comes first, the peptide text is derived from it. Bridges are numbered along the chain shown (N, C = ends). Roman numbers before positions name the chains, in order. [ ]: non-standard residue; d: D form. Actinocin(9to1) = Cc1c2oc3c(C)ccc(C(=O)[*:1])c3nc-2c(C(=O)[*:2])c(N)c1=O; NMeV = CN[CH](C(=O)O)C(C)C; Aze = O=C(O)[CH]1CCN1; Sar = CNCC(=O)O

System: CD2F1 mice, ip Colon 26 adenocarcinoma, median survival T/C
Experiment: NCI In Vivo Anticancer Drug Screen. Data for tumor model Colon 26 Adenocarcinoma (intraperitoneal) in CD2F1 (CDF1) mice
Details: endpoint: median survival time, higher = longer survival
Protocol: The antitumor activity of compounds was measured in mice bearing transplantable tumors. Survival or tumor size were measured and the results are expressed as the measurement made in the treated group (T) divided by the measurement made in the vehicle treated control group (C). The tumor model used in this assay is Colon 26 Adenocarcinoma (intraperitoneal) in CD2F1 (CDF1) mice

[1] = dose: 25.0 mg/kg/injection, schedule: Q04DX003 (ip), vehicle: saline
[2] = dose: 50.0 mg/kg/injection, schedule: Q04DX003 (ip), vehicle: saline

For N[C@@H](Cc1ccc(N(CCCl)CCCl)cc1)C(=O)O, the T/C (dose: 1.0 mg/kg/injection, schedule: Q04DX002 (ip), vehicle: suspension in saline) was 162 % of control, the T/C (dose: 1.25 mg/kg/injection, schedule: Q04DX003 (ip), vehicle: saline) was 175 % of control and the T/C (dose: 2.0 mg/kg/injection, schedule: Q04DX002 (ip), vehicle: suspension in saline) was 231 % of control. The T/C (dose: 2.5 mg/kg/injection, schedule: Q04DX003 (ip), vehicle: suspension in saline) was 181 % of control, the T/C (dose: 4.0 mg/kg/injection, schedule: Q04DX002 (ip), vehicle: suspension in saline) was 249 % of control and the T/C (dose: 5.0 mg/kg/injection, schedule: Q04DX003 (ip), vehicle: suspension in saline) was 186 % of control. The T/C (dose: 8.0 mg/kg/injection, schedule: Q04DX002 (ip), vehicle: suspension in saline) was 277 % of control, the T/C (dose: 10.0 mg/kg/injection, schedule: Q04DX003 (ip), vehicle: suspension in saline) was 182 % of control and the T/C (dose: 16.0 mg/kg/injection, schedule: Q04DX002 (ip), vehicle: suspension in saline) was 226 % of control. The T/C (dose: 20.0 mg/kg/injection, schedule: Q04DX003 (ip), vehicle: suspension in saline) was 216 % of control.

For CN(C)CCNc1ccc(O)c2c1C(=O)c1ccccc1C2=O, the T/C (dose: 10.0 mg/kg/injection, schedule: Q01DX009 (ip), vehicle: acid diluted with saline) was 121 % of control, the T/C (dose: 20.0 mg/kg/injection, schedule: Q01DX009 (ip), vehicle: acid diluted with saline) was 104 % of control and 115 % of control and the T/C (dose: 40.0 mg/kg/injection, schedule: Q01DX009 (ip), vehicle: acid diluted with saline) was 103 % of control. For the same compound, the T/C (dose: 80.0 mg/kg/injection, schedule: Q01DX009 (ip), vehicle: acid diluted with saline) was 115 % of control and 120 % of control.

In the case of S=c1nc[nH]c2nc[nH]c12, the T/C (dose: 6.25 mg/kg/injection, schedule: Q04DX003 (ip), vehicle: Klucel (hydroxypropylcellulose) (HPC)) is reported as 115 % of control, the T/C (dose: 12.5 mg/kg/injection, schedule: Q04DX003 (ip), vehicle: Klucel (hydroxypropylcellulose) (HPC)) is reported as 110 % of control and the T/C (dose: 50.0 mg/kg/injection, schedule: Q04DX003 (ip), vehicle: Klucel (hydroxypropylcellulose) (HPC)) is reported as 191 % of control and 252 % of control. For the same compound, the T/C (dose: 100.0 mg/kg/injection, schedule: Q04DX003 (ip), vehicle: Klucel (hydroxypropylcellulose) (HPC)) was 171 % of control and the T/C (dose: 200.0 mg/kg/injection, schedule: Q04DX003 (ip), vehicle: Klucel (hydroxypropylcellulose) (HPC)) was 86 % of control.

With CCCCCCCCNc1cc2c3c(c1)CCCN3CCC2 the T/C (dose: 0.37 mg/kg/injection, schedule: Q04DX003 (ip), vehicle: Klucel (hydroxypropylcellulose) (HPC)) was 104 % of control, the T/C (dose: 0.75 mg/kg/injection, schedule: Q04DX003 (ip), vehicle: Klucel (hydroxypropylcellulose) (HPC)) was 100 % of control and the T/C (dose: 1.5 mg/kg/injection, schedule: Q04DX003 (ip), vehicle: Klucel (hydroxypropylcellulose) (HPC)) was 102 % of control. The T/C (dose: 3.0 mg/kg/injection, schedule: Q04DX003 (ip), vehicle: Klucel (hydroxypropylcellulose) (HPC)) was 109 % of control and the T/C (dose: 6.0 mg/kg/injection, schedule: Q04DX003 (ip), vehicle: Klucel (hydroxypropylcellulose) (HPC)) was 106 % of control.

In the case of CCC(C)C(=O)O[C@H]1C(=O)O[C@@H]2C[C@H]3C(C)=CC(=O)[C@@H](O)[C@]3(C)[C@H]3[C@@H](O)[C@H](O)[C@@]4(C)OC[C@]32[C@@H]14 (stereo not given in full), the T/C (dose: 0.5 mg/kg/injection, schedule: Q04DX002 (ip), vehicle: saline) is reported as 102 % of control, the T/C (dose: 1.0 mg/kg/injection, schedule: Q04DX002 (ip), vehicle: saline) is reported as 98 % of control and the T/C (dose: 2.0 mg/kg/injection, schedule: Q04DX002 (ip), vehicle: saline) is reported as 97 % of control.

In the case of C/C=C(\C)C(=O)OC1C(C)C2(O)C(C=C(CO)CC3(O)C(=O)C(C)=CC32)C2C(C)(C)C12OC(=O)CCCCCCCCC (stereo not given), the T/C (dose: 0.03 mg/kg/injection, schedule: Q04DX003 (ip), vehicle: saline + alcohol) is reported as 93 % of control, the T/C (dose: 0.06 mg/kg/injection, schedule: Q04DX003 (ip), vehicle: saline + alcohol) is reported as 86 % of control and the T/C (dose: 0.13 mg/kg/injection, schedule: Q04DX003 (ip), vehicle: saline + alcohol) is reported as 90 % of control. For the same compound, the T/C (dose: 0.25 mg/kg/injection, schedule: Q04DX003 (ip), vehicle: saline + alcohol) was 86 % of control.

In the case of CO[C@@]12[C@H](COC(N)=O)C3=C(C(=O)C(C)=C(N)C3=O)N1C[C@@H]1N[C@@H]12, the T/C (dose: 1.0 mg/kg/injection, schedule: Q01DX004 (ip), vehicle: saline) is reported as 122 % of control, the T/C (dose: 1.0 mg/kg/injection, schedule: Q03DX002 (ip), vehicle: saline) is reported as 120 % of control and the T/C (dose: 2.0 mg/kg/injection, schedule: Q01DX005 (ip), vehicle: saline) is reported as 96 % of control. The T/C (dose: 2.0 mg/kg/injection, schedule: Q03DX002 (ip), vehicle: saline) was 113 % of control, the T/C (dose: 2.0 mg/kg/injection, schedule: Q07DX003 (ip), vehicle: Klucel (hydroxypropylcellulose) (HPC)) was 195 % of control and the T/C (dose: 2.0 mg/kg/injection, schedule: Q07DX003 (ip), vehicle: saline) was 152 % of control. The T/C (dose: 2.9 mg/kg/injection, schedule: Q07DX003 (ip), vehicle: Klucel (hydroxypropylcellulose) (HPC)) was 183 % of control, the T/C (dose: 2.9 mg/kg/injection, schedule: Q07DX003 (ip), vehicle: saline) was 169 % of control and the T/C (dose: 3.0 mg/kg/injection, schedule: Q01DX004 (ip), vehicle: saline) was 114 % of control. The T/C (dose: 3.0 mg/kg/injection, schedule: Q01DX005 (ip), vehicle: saline) was 110 % of control, the T/C (dose: 3.0 mg/kg/injection, schedule: Q03DX002 (ip), vehicle: saline) was 117 % of control and the T/C (dose: 4.2 mg/kg/injection, schedule: Q07DX003 (ip), vehicle: Klucel (hydroxypropylcellulose) (HPC)) was 223 % of control. For the same compound, the T/C (dose: 4.2 mg/kg/injection, schedule: Q07DX003 (ip), vehicle: saline) was 190 % of control, the T/C (dose: 4.5 mg/kg/injection, schedule: Q01DX005 (ip), vehicle: saline) was 114 % of control and the T/C (dose: 4.5 mg/kg/injection, schedule: Q03DX002 (ip), vehicle: saline) was 110 % of control. For the same compound, the T/C (dose: 6.0 mg/kg/injection, schedule: Q01DX005 (ip), vehicle: saline) was 121 % of control, the T/C (dose: 6.0 mg/kg/injection, schedule: Q07DX003 (ip), vehicle: Klucel (hydroxypropylcellulose) (HPC)) was 87 % of control and the T/C (dose: 6.0 mg/kg/injection, schedule: Q07DX003 (ip), vehicle: saline) was 231 % of control.

In the case of O=C1C=CN(C2OC(CO)C(O)C2O)C(=O)C1 (stereo not given), the T/C (dose: 25.0 mg/kg/injection, schedule: Q01DX005 (ip), vehicle: saline) is reported as 109 % of control, the T/C [1] is reported as 112 % of control and the T/C (dose: 50.0 mg/kg/injection, schedule: Q01DX005 (ip), vehicle: saline) is reported as 102 % of control. For the same compound, the T/C [2] was 109 % of control, the T/C (dose: 100.0 mg/kg/injection, schedule: Q01DX005 (ip), vehicle: saline) was 98 % of control and the T/C (dose: 100.0 mg/kg/injection, schedule: Q04DX003 (ip), vehicle: saline) was 106 % of control. The T/C (dose: 200.0 mg/kg/injection, schedule: Q01DX005 (ip), vehicle: saline) was 106 % of control, the T/C (dose: 200.0 mg/kg/injection, schedule: Q04DX003 (ip), vehicle: saline) was 102 % of control and the T/C (dose: 400.0 mg/kg/injection, schedule: Q01DX005 (ip), vehicle: saline) was 102 % of control. The T/C (dose: 400.0 mg/kg/injection, schedule: Q04DX003 (ip), vehicle: saline) was 109 % of control.

C=CCNc1ccc(C)cc1 was tested, and the T/C (dose: 12.5 mg/kg/injection, schedule: Q04DX003 (ip), vehicle: saline with Tween-80) was 104 % of control, the T/C (dose: 25.0 mg/kg/injection, schedule: Q04DX003 (ip), vehicle: saline with Tween-80) was 104 % of control and the T/C (dose: 50.0 mg/kg/injection, schedule: Q04DX003 (ip), vehicle: saline with Tween-80) was 96 % of control. For the same compound, the T/C (dose: 100.0 mg/kg/injection, schedule: Q04DX003 (ip), vehicle: saline with Tween-80) was 97 % of control.

C=C1C(=O)C23C(O)CC4C5(C)CCCC4(C(O)OC5)C2C(OC(C)=O)CC1C3O (stereo not given) was tested, and the T/C (dose: 8.0 mg/kg/injection, schedule: Q04DX002 (ip), vehicle: saline with Tween-80) was 116 % of control, the T/C (dose: 16.0 mg/kg/injection, schedule: Q04DX002 (ip), vehicle: saline with Tween-80) was 109 % of control and the T/C (dose: 32.0 mg/kg/injection, schedule: Q04DX002 (ip), vehicle: saline with Tween-80) was 92 % of control. For the same compound, the T/C (dose: 64.0 mg/kg/injection, schedule: Q04DX002 (ip), vehicle: saline with Tween-80) was 103 % of control.

For Cc1c2oc3c(C)ccc(C(=O)NC4C(=O)NC(C(C)C)C(=O)N5CCC5C(=O)N(C)CC(=O)N(C)C(C(C)C)C(=O)OC4C)c3nc-2c(C(=O)NC2C(=O)NC(C(C)C)C(=O)N3CCC3C(=O)N(C)CC(=O)N(C)C(C(C)C)C(=O)OC2C)c(N)c1=O (stereo not given) (I: TV[Aze][Sar][NMeV] / II: TV[Aze][Sar][NMeV]; ester I:1-I:C, II:1-II:C; linker I:N-II:N via Actinocin(9to1); configuration not given here), the T/C (dose: 270.0 micrograms/kg/injection, schedule: Q04DX003 (ip), vehicle: saline + alcohol) was 114 % of control.

NCCc1ccc(O)c(O)c1 was tested, and the T/C [1] was 94 % of control and the T/C [2] was 109 % of control.
